Starred links: 1 amine or outer side, 2 acyl side, 3 side chain; linkers in the order of their positions; H or OH if unused. Non-standard residues stand in square brackets, D forms with d. Residues, ends and D or L forms follow the SMILES beside them. β3hPhe(2R-OH) = O=C([C@H](O)[C@H](Cc1ccccc1)N[*:1])[*:2]; X1 = CC(C)C[C@H](N[*:1])[C@@H](O)C(=O)[*:2]

T1 sequence (P56817 whole entry): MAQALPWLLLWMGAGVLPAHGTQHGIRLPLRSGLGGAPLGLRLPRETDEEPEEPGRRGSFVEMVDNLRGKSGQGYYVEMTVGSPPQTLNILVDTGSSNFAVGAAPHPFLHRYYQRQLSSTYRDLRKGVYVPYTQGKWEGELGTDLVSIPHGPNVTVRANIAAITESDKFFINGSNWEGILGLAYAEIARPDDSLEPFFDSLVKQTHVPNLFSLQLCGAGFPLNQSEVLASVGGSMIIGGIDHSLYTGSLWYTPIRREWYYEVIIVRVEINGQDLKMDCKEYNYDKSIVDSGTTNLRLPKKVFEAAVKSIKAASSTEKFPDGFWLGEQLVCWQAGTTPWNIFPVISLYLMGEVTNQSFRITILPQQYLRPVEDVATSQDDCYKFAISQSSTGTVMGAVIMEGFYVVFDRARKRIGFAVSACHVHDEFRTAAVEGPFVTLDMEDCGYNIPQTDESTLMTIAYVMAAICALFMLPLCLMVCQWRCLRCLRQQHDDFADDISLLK

One test has as its target T1, Beta-secretase 1 (Homo sapiens, UniProt P56817). Nature of the test: Inhibition of beta-secretase 1 (BACE) was determined at the concentration of 2 uM.
Consider `CC(C)C[C@H](NC(=O)[C@@H](NC(=O)[C@@H](N)CCC(=O)O)C(C)C)C(=O)N[C@@H](Cc1ccccc1)[C@@H](O)C(=O)N1CSC(C)(C)C1C(=O)N[C@@H](C)C(=O)N[C@@H](CCC(=O)O)C(=O)N[C@@H](Cc1ccccc1)C(=O)O` (some centres not stated), for which the inhibition (commonly the percentage by which the read-out fell short of the control) is 34%. Same read-out and setting: the figure for `CC(C)C[C@H](NC(=O)[C@@H](NC(=O)[C@@H](N)CCC(=O)O)C(C)C)C(=O)N[C@@H](Cc1ccccc1)[C@@H](O)C(=O)N[C@@H](C)C(=O)N[C@@H](C)C(=O)N[C@@H](CCC(=O)O)C(=O)N[C@@H](Cc1ccccc1)C(=O)O` is 53%; for `CC(C)C[C@H](NC(=O)[C@@H](NC(=O)[C@@H](N)CCC(=O)O)C(C)C)C(=O)N[C@@H](Cc1ccccc1)[C@@H](O)C(=O)N[C@@H](CC(N)=O)C(=O)N[C@@H](C)C(=O)N[C@@H](CCC(=O)O)C(=O)N[C@@H](Cc1ccccc1)C(=O)O` it is 54%; for `CC(C)C[C@H](NC(=O)[C@@H](NC(=O)[C@@H](N)CCC(=O)O)C(C)C)C(=O)N[C@@H](Cc1ccccc1)[C@@H](O)C(=O)N[C@@H](CCC(=O)O)C(=O)N[C@@H](C)C(=O)N[C@@H](CCC(=O)O)C(=O)N[C@@H](Cc1ccccc1)C(=O)O` it is 64%. Same read-out and setting: the figure for `CC(C)C[C@H](NC(=O)[C@@H](NC(=O)[C@@H](N)CCC(=O)O)C(C)C)C(=O)N[C@@H](Cc1ccccc1)[C@@H](O)C(=O)N[C@@H](CCC(N)=O)C(=O)N[C@@H](C)C(=O)N[C@@H](CCC(=O)O)C(=O)N[C@@H](Cc1ccccc1)C(=O)O` is 41%. The same measure, in the same setting: under `CC(C)C[C@H](NC(=O)[C@@H](NC(=O)[C@@H](N)CCC(=O)O)C(C)C)C(=O)N[C@H](Cc1ccccc1)[C@@H](O)C(=O)N1CSC(C)(C)C1C(=O)N[C@@H](C)C(=O)N[C@@H](CCC(=O)O)C(=O)N[C@@H](Cc1ccccc1)C(=O)O` (some centres not stated) stands 34%; under `CC(C)C[C@H](NC(=O)[C@@H](NC(=O)[C@@H](N)CCC(=O)O)C(C)C)C(=O)N[C@H](Cc1ccccc1)[C@@H](O)C(=O)N[C@@H](C)C(=O)N[C@@H](C)C(=O)N[C@@H](CCC(=O)O)C(=O)N[C@@H](Cc1ccccc1)C(=O)O`, less than 20%. The compound `CC(C)C[C@H](NC(=O)[C@@H](NC(=O)[C@@H](N)CCC(=O)O)C(C)C)C(=O)N[C@H](Cc1ccccc1)[C@@H](O)C(=O)N[C@@H](CC(=O)O)C(=O)N[C@@H](C)C(=O)N[C@@H](CCC(=O)O)C(=O)N[C@@H](Cc1ccccc1)C(=O)O` displayed an inhibition of 66%. With `CC(C)C[C@H](NC(=O)[C@@H](NC(=O)[C@@H](N)CCC(=O)O)C(C)C)C(=O)N[C@H](Cc1ccccc1)[C@@H](O)C(=O)N[C@@H](CC(N)=O)C(=O)N[C@@H](C)C(=O)N[C@@H](CCC(=O)O)C(=O)N[C@@H](Cc1ccccc1)C(=O)O`, the inhibition was determined as 22%. The same measure, in the same setting: under `CC(C)C[C@H](NC(=O)[C@@H](NC(=O)[C@@H](N)CCC(=O)O)C(C)C)C(=O)N[C@H](Cc1ccccc1)[C@@H](O)C(=O)N[C@@H](CCC(=O)O)C(=O)N[C@@H](C)C(=O)N[C@@H](CCC(=O)O)C(=O)N[C@@H](Cc1ccccc1)C(=O)O` stands 47%.

`CC(C)C[C@H](NC(=O)[C@@H](NC(=O)[C@@H](N)CCC(=O)O)C(C)C)C(=O)N[C@H](Cc1ccccc1)[C@@H](O)C(=O)N[C@@H](CCC(N)=O)C(=O)N[C@@H](C)C(=O)N[C@@H](CCC(=O)O)C(=O)N[C@@H](Cc1ccccc1)C(=O)O` came in with an inhibition of 33%. Same read-out and setting: under `CC[C@@H](C)[C@H](NC(=O)[C@@H](N)CCC(=O)O)C(=O)N[C@@H](CC(C)C)C(=O)N[C@@H](Cc1ccccc1)[C@@H](O)C(=O)N[C@@H](CC(=O)O)C(=O)N[C@@H](C)C(=O)N[C@@H](CCC(=O)O)C(=O)N[C@@H](Cc1ccccc1)C(=O)O` stands 26%. Same read-out and setting: the figure for `CC(C)C[C@H](NC(=O)[C@H](Cc1ccccc1)NC(=O)[C@@H](N)CCC(=O)O)C(=O)N[C@@H](Cc1ccccc1)[C@@H](O)C(=O)N[C@@H](CC(=O)O)C(=O)N[C@@H](C)C(=O)N[C@@H](CCC(=O)O)C(=O)N[C@@H](Cc1ccccc1)C(=O)O` (H-EFL[β3hPhe(2R-OH)]DAEF-OH) is less than 20%.

The compound `CC(C)C[C@H](NC(=O)[C@H](CC(C)C)NC(=O)[C@@H](N)CCC(=O)O)C(=O)N[C@@H](Cc1ccccc1)[C@@H](O)C(=O)N[C@@H](CC(=O)O)C(=O)N[C@@H](C)C(=O)N[C@@H](CCC(=O)O)C(=O)N[C@@H](Cc1ccccc1)C(=O)O` (H-ELL[β3hPhe(2R-OH)]DAEF-OH) showed an inhibition of less than 20%. Compound `CSCC[C@H](NC(=O)[C@@H](N)CCC(=O)O)C(=O)N[C@@H](CC(C)C)C(=O)N[C@@H](Cc1ccccc1)[C@@H](O)C(=O)N[C@@H](CC(=O)O)C(=O)N[C@@H](C)C(=O)N[C@@H](CCC(=O)O)C(=O)N[C@@H](Cc1ccccc1)C(=O)O` (H-EML[β3hPhe(2R-OH)]DAEF-OH) displayed an inhibition of less than 20%.

On to `CC(C)[C@H](NC(=O)[C@@H](N)CCC(=O)O)C(=O)N[C@@H](CC(=O)O)C(=O)N[C@@H](Cc1ccccc1)[C@@H](O)C(=O)N[C@@H](CC(=O)O)C(=O)N[C@@H](C)C(=O)N[C@@H](CCC(=O)O)C(=O)N[C@@H](Cc1ccccc1)C(=O)O` (H-EVD[β3hPhe(2R-OH)]DAEF-OH), for which the inhibition came out at 25%.

Turning to `CC(C)[C@H](NC(=O)[C@@H](N)CCC(=O)O)C(=O)N[C@@H](CCC(=O)O)C(=O)N[C@@H](Cc1ccccc1)[C@@H](O)C(=O)N[C@@H](CC(=O)O)C(=O)N[C@@H](C)C(=O)N[C@@H](CCC(=O)O)C(=O)N[C@@H](Cc1ccccc1)C(=O)O` (H-EVE[β3hPhe(2R-OH)]DAEF-OH), the inhibition turned out to be 30%.

For `CC(C)[C@H](NC(=O)[C@@H](N)CCC(=O)O)C(=O)N[C@@H](CCCCN)C(=O)N[C@@H](Cc1ccccc1)[C@@H](O)C(=O)N[C@@H](CC(=O)O)C(=O)N[C@@H](C)C(=O)N[C@@H](CCC(=O)O)C(=O)N[C@@H](Cc1ccccc1)C(=O)O` (H-EVK[β3hPhe(2R-OH)]DAEF-OH), the inhibition was less than 20%.

The compound `CC(C)C[C@H](NC(=O)[C@@H](NC(=O)[C@@H](N)CCC(=O)O)C(C)C)C(=O)N[C@@H](Cc1ccccc1)[C@@H](O)C(=O)N[C@@H](C)C(=O)N[C@@H](CCC(=O)O)C(=O)N[C@@H](CCC(=O)O)C(=O)N[C@@H](Cc1ccccc1)C(=O)O` (H-EVL[β3hPhe(2R-OH)]AEEF-OH) yielded an inhibition of 78%.

Regarding `CC(C)C[C@H](NC(=O)[C@@H](NC(=O)[C@@H](N)CCC(=O)O)C(C)C)C(=O)N[C@@H](Cc1ccccc1)[C@@H](O)C(=O)N[C@@H](C)C(=O)N[C@@H](Cc1ccccc1)C(=O)N[C@@H](CCC(=O)O)C(=O)N[C@@H](Cc1ccccc1)C(=O)O` (H-EVL[β3hPhe(2R-OH)]AFEF-OH), the inhibition worked out at 60%. The same measure, in the same setting: under `CC(C)C[C@H](NC(=O)[C@H](C)NC(=O)[C@H](O)[C@H](Cc1ccccc1)NC(=O)[C@H](CC(C)C)NC(=O)[C@@H](NC(=O)[C@@H](N)CCC(=O)O)C(C)C)C(=O)N[C@@H](CCC(=O)O)C(=O)N[C@@H](Cc1ccccc1)C(=O)O` (H-EVL[β3hPhe(2R-OH)]ALEF-OH) stands 41%; under `CC(C)C[C@H](NC(=O)[C@@H](NC(=O)[C@@H](N)CCC(=O)O)C(C)C)C(=O)N[C@@H](Cc1ccccc1)[C@@H](O)C(=O)N[C@@H](C)C(=O)N[C@H](C(=O)N[C@@H](CCC(=O)O)C(=O)N[C@@H](Cc1ccccc1)C(=O)O)C(C)C` (H-EVL[β3hPhe(2R-OH)]AVEF-OH), 30%. The compound `CC(C)C[C@H](NC(=O)[C@@H](NC(=O)[C@@H](N)CCC(=O)O)C(C)C)C(=O)N[C@@H](Cc1ccccc1)[C@@H](O)C(=O)N[C@@H](CC(=O)O)C(=O)N[C@@H](C)C(=O)N[C@@H](Cc1ccccc1)C(=O)N[C@@H](Cc1ccccc1)C(=O)O` (H-EVL[β3hPhe(2R-OH)]DAFF-OH) registered an inhibition of 67%. On the same count and under the same terms, under `CC(C)C[C@H](NC(=O)[C@H](C)NC(=O)[C@H](CC(=O)O)NC(=O)[C@H](O)[C@H](Cc1ccccc1)NC(=O)[C@H](CC(C)C)NC(=O)[C@@H](NC(=O)[C@@H](N)CCC(=O)O)C(C)C)C(=O)N[C@@H](Cc1ccccc1)C(=O)O` (H-EVL[β3hPhe(2R-OH)]DALF-OH) stands 57%; under `CC(C)C[C@H](NC(=O)[C@@H](NC(=O)[C@@H](N)CCC(=O)O)C(C)C)C(=O)N[C@@H](Cc1ccccc1)[C@@H](O)C(=O)N[C@@H](CC(=O)O)C(=O)N[C@@H](C)C(=O)N[C@@H](CCC(N)=O)C(=O)N[C@@H](Cc1ccccc1)C(=O)O` (H-EVL[β3hPhe(2R-OH)]DAQF-OH), 56%; under `CC(C)C[C@H](NC(=O)[C@@H](NC(=O)[C@@H](N)CCC(=O)O)C(C)C)C(=O)N[C@@H](Cc1ccccc1)[C@@H](O)C(=O)N[C@@H](CC(=O)O)C(=O)N[C@@H](C)C(=O)N[C@H](C(=O)N[C@@H](Cc1ccccc1)C(=O)O)C(C)C` (H-EVL[β3hPhe(2R-OH)]DAVF-OH), 57%. The same measure, in the same setting: the figure for `CSCC[C@H](NC(=O)[C@@H](NC(=O)[C@@H](N)CCC(=O)O)C(C)C)C(=O)N[C@@H](Cc1ccccc1)[C@@H](O)C(=O)N[C@@H](CC(=O)O)C(=O)N[C@@H](C)C(=O)N[C@@H](CCC(=O)O)C(=O)N[C@@H](Cc1ccccc1)C(=O)O` (H-EVM[β3hPhe(2R-OH)]DAEF-OH) is 42%; for `CC(C)C[C@H](NC(=O)[C@H](CC(N)=O)NC(=O)[C@@H](NC(=O)[C@@H](N)CCC(=O)O)C(C)C)[C@@H](O)C(=O)N[C@@H](CC(=O)O)C(=O)N[C@@H](C)C(=O)N[C@@H](CCC(=O)O)C(=O)N[C@@H](Cc1ccccc1)C(=O)O` (H-EVN[X1]DAEF-OH) it is less than 20%. On the same count and under the same terms, under `CC(C)[C@H](NC(=O)[C@@H](N)CCC(=O)O)C(=O)N[C@@H](CC(N)=O)C(=O)N[C@@H](Cc1ccccc1)[C@@H](O)C(=O)N[C@@H](CC(=O)O)C(=O)N[C@@H](C)C(=O)N[C@@H](CCC(=O)O)C(=O)N[C@@H](Cc1ccccc1)C(=O)O` (H-EVN[β3hPhe(2R-OH)]DAEF-OH) stands 24%; under `CC(C)[C@H](NC(=O)[C@@H](N)CCC(=O)O)C(=O)N[C@@H](CCC(N)=O)C(=O)N[C@@H](Cc1ccccc1)[C@@H](O)C(=O)N[C@@H](CC(=O)O)C(=O)N[C@@H](C)C(=O)N[C@@H](CCC(=O)O)C(=O)N[C@@H](Cc1ccccc1)C(=O)O` (H-EVQ[β3hPhe(2R-OH)]DAEF-OH), 36%; under `CC(C)C[C@H](NC(=O)[C@@H](NC(=O)[C@@H](N)CCC(=O)O)C(C)C)C(=O)N[C@@H](Cc1ccccc1)[C@@H](O)C(=O)N[C@@H](CC(=O)O)C(=O)N[C@@H](C)C(=O)N[C@@H](CCC(=O)O)C(=O)N[C@@H](Cc1ccccc1)C(=O)O` [HGLUVALLEUPNSASPALAGLUPHEOH], greater than 90%.

A further test concerns the target T1, Beta-secretase 1. Nature of the test: Inhibitory activity against Beta-secretase 1 was determined.
With `CC(C)C[C@H](NC(=O)[C@@H](NC(=O)[C@@H](N)CCC(=O)O)C(C)C)C(=O)N[C@@H](Cc1ccccc1)[C@@H](O)C(=O)N[C@@H](CC(=O)O)C(=O)N[C@@H](C)C(=O)N[C@@H](CCC(=O)O)C(=O)N[C@@H](Cc1ccccc1)C(=O)O` [HGLUVALLEUPNSASPALAGLUPHEOH], the IC50 (usually the concentration at which inhibition is half-maximal) is 413 nM.
